Reference: ChEMBL document CHEMBL1124557, “Pentadienyl carboxamide derivatives as antagonists of platelet-activating factor” (J Med Chem, 1989)

Legend:
Cavia porcellus [1] = test: Ability to prevent PAF-induced bronchoconstriction in guinea pig when administered at a dose of 1 mg/kg intravenously; assay type: functional; conditions: route intravenous
Cavia porcellus [2] = test: Inhibition of PAF-induced bronchoconstriction in guinea pig 2 hr after p.o. administration.; assay type: functional; conditions: po, read-out: ID50 (the source's name)
[3] = target: Platelet-activating factor receptor (Cavia porcellus) (UniProt P21556); test: Ability to prevent PAF-induced bronchoconstriction in guinea pig when administered intravenously; assay type: functional
Platelet-activating factor receptor (Cavia porcellus), sequence (P21556 whole entry): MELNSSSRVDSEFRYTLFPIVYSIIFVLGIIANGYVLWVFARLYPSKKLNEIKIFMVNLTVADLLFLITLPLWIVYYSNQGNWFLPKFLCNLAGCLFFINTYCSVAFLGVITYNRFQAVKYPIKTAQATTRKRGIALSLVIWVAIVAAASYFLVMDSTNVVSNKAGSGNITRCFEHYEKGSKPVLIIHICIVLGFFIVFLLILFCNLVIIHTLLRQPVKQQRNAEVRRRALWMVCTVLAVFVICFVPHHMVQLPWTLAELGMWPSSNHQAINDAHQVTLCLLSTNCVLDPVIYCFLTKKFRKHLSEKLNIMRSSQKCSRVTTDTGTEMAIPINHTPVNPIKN

Cavia porcellus [4] = test: Ability to prevent PAF-induced bronchoconstriction in guinea pig 6 hr following 50 mg/kg p.o. administration.; assay type: functional; conditions: route oral
[5] = target: Platelet-activating factor receptor (Cavia porcellus) (UniProt P21556); test: Ability to prevent PAF-induced bronchoconstriction in guinea pig 2 hr after administration (50 mg/kg perorally); assay type: functional, organism-based
Cavia porcellus [6] = test: Ability to prevent PAF-induced bronchoconstriction in guinea pig when administered dose 0.5 mg/kg intravenously; assay type: functional; conditions: route intravenous
Cavia porcellus [7] = test: Inhibitory activity against bronchoconstriction in guinea pig 2 hr after peroral administration of compound; assay type: functional; conditions: Lung, po, read-out: ID50 (the source's name)
[8] = test system: Platelet-activating factor receptor (Canis familiaris); test: Compound was evaluated for inhibition of platelet activating factor binding activity in dog platelets using [3H]PAF as radioligand; NA means inactive

| ID50 [3] [mg/kg] | inhibition [5] [%] | IC50 [8] | SMILES | inhibition in vivo at 1 mg/kg (Cavia porcellus [1]) [%] | ED50 (Cavia porcellus [2]) [mg/kg] | inhibition in vivo at 50 mg/kg (Cavia porcellus [4]) [%] | inhibition in vivo at 0.5 mg/kg (Cavia porcellus [6]) [%] | ED50 (Cavia porcellus [7]) [mg/kg] |
| --- | --- | --- | --- | --- | --- | --- | --- | --- |
|  |  |  | COc1ccc(/C=C/C=C/C(=O)N[C@H](C)CCCc2cccnc2)cc1 | -17 |  |  |  |  |
| 0.14 | 67 |  | COc1ccc(C(=C/C=C/C(=O)N[C@H](C)CCCc2cccnc2)c2ccc(OC)c(OC)c2)cc1OC | 99 | 26 | 2 |  |  |
| 0.68 | 98 |  | CCCC/C(=C\C=C\C(=O)N[C@H](C)CCCc1cccnc1)c1ccc(OC)cc1 | 99 | 12 | 69 |  |  |
|  |  |  | C[C@@H](CCCc1cccnc1)NC(=O)/C=C/C=C(c1ccc(F)cc1)c1ccc(F)cc1 | 21 |  |  |  |  |
|  |  |  | O=C(CCC=C(c1ccccc1)c1ccccc1)NCCCCc1cccnc1 |  |  |  | 21 |  |
| 0.21 | 86 |  | COc1cccc(C(=C/C=C/C(=O)N[C@H](C)CCCc2cccnc2)c2cccc(OC)c2)c1 | 88 | 29 | 12 |  |  |
| 0.31 | 53 |  | C[C@H](CCCc1cccnc1)NC(=O)/C=C/C=C(c1ccc(F)cc1)c1ccc(F)cc1 | 70 |  |  |  |  |
| 0.25 | 82 |  | COc1ccc(C(=C/C=C/C(=O)NCCCCc2cccnc2)c2ccc(OC)cc2)cc1 | 92 | 12 | 71 |  |  |
| 0.52 | 9 |  | CCC/C(=C\C=C\C(=O)N[C@H](C)CCCc1cccnc1)c1ccc(OC)cc1 | 86 |  |  |  |  |
|  |  |  | O=C(CCCCC=C(c1ccccc1)c1ccccc1)NCCCCc1cccnc1 |  |  |  | 15 |  |
|  |  |  | COc1ccc(C(=C/C=C/C(=O)N[C@@H](CCCc2cccnc2)C2CCCC2)c2ccc(OC)cc2)cc1 | 19 |  |  |  |  |
| 0.27 | 54 |  | COc1ccc(C(=C/C=C/C(=O)NC(C)(C)CCCc2cccnc2)c2ccc(OC)cc2)cc1 | 97 | 55 |  |  |  |
| 0.43 | 57 |  | COc1ccc(C(=C/C=C/C(=O)N[C@@H](CCCc2cccnc2)C(C)C)c2ccc(OC)cc2)cc1 | 87 | 26 |  |  |  |
| 0.26 | 67 |  | Cc1ccc(C(=C/C=C/C(=O)NCCCCc2cccnc2)c2ccc(C)cc2)cc1 | 95 | 43 | 11 |  |  |
| 0.25 | 1 |  | COc1cccc(/C(=C/C=C/C(=O)NCCCCc2cccnc2)c2cccc(F)c2)c1 | 90 |  |  |  |  |
| 0.21 | 97 |  | COc1ccc(/C(=C/C=C/C(=O)N[C@H](C)CCCc2cccnc2)C2CCCCC2)cc1 | 73 | 10 | 12 |  |  |
| 0.36 | 31 |  | COc1cccc(C(=C/C=C/C(=O)NCCCCc2cccnc2)c2cccc(OC)c2)c1 | 69 | 80 |  |  |  |
|  |  |  | COc1ccccc1C(=C/C=C/C(=O)NCCCCc1cccnc1)c1ccccc1OC | 40 |  |  |  |  |
| 0.68 | 84 |  | CC/C(=C\C=C\C(=O)N[C@H](C)CCCc1cccnc1)c1ccc(OC)cc1 | 72 | 35 | 9 |  |  |
| 0.34 | 37 |  | O=C(/C=C/C=C(c1cccc(F)c1)c1cccc(F)c1)NCCCCc1cccnc1 | 71 |  |  |  | 50 |
|  |  |  | COc1ccc(/C(=C\C=C\C(=O)N[C@H](C)CCCc2cccnc2)C2CCCCC2)cc1 | 18 |  |  |  |  |
| 0.78 | 13 |  | CCCCC/C(=C/C=C/C(=O)N[C@H](C)CCCc1cccnc1)c1ccc(OC)cc1 | 57 |  |  |  |  |
|  |  |  | CCC[C@H](CCCc1cccnc1)NC(=O)/C=C/C=C(c1ccc(OC)cc1)c1ccc(OC)cc1 | 24 |  |  |  |  |
| 0.1 | 84 |  | CCCCCCCC/C(=C\C=C\C(=O)N[C@H](C)CCCc1cccnc1)c1ccc(OC)cc1 | 98 | 13 | 27 |  |  |
| 0.3 | 91 |  | Cc1ccc(C(=C/C=C/C(=O)N[C@H](C)CCCc2cccnc2)c2ccc(C)cc2)cc1 | 97 | 18 | 14 |  |  |
| 1.1 |  |  | COc1ccc(C(=C/C=C/C(=O)NC(C)CCCc2cccnc2C)c2ccc(OC)cc2)cc1 (configuration not stated) | 47 |  |  |  |  |
|  |  |  | COc1ccc(C(=C/C=C/C(=O)NC(C)CCCc2ccc(C)nc2)c2ccc(OC)cc2)cc1 (configuration not stated) | 5 |  |  |  |  |
| 0.16 | 99 |  | CC[C@H](CCCc1cccnc1)NC(=O)/C=C/C=C(c1ccc(OC)cc1)c1ccc(OC)cc1 | 99 | 6 | 85 |  |  |

| ID50 [3] [mg/kg] | inhibition [5] [%] | IC50 [8] | SMILES | inhibition in vivo at 1 mg/kg (Cavia porcellus [1]) [%] | ED50 (Cavia porcellus [2]) [mg/kg] | inhibition in vivo at 50 mg/kg (Cavia porcellus [4]) [%] | inhibition in vivo at 0.5 mg/kg (Cavia porcellus [6]) [%] | ED50 (Cavia porcellus [7]) [mg/kg] |
| --- | --- | --- | --- | --- | --- | --- | --- | --- |
| 0.26 |  |  | O=C(/C=C/C=C(c1cccc([N+](=O)[O-])c1)c1cccc([N+](=O)[O-])c1)NCCCCc1cccnc1 | 78 |  |  |  |  |
|  |  | Not Active | O=C(CC=C(c1ccccc1)c1ccccc1)NCCCCc1cccnc1 |  |  |  |  |  |
| 0.2 | 99 |  | COc1ccc(C(=C/C=C/C(=O)N[C@@H](CCCc2cccnc2)C2CC2)c2ccc(OC)cc2)cc1 | 98 | 6 | 82 |  |  |
| 0.47 | 23 |  | O=C(/C=C/C=C(c1cccc(Cl)c1)c1cccc(Cl)c1)NCCCCc1cccnc1 | 76 |  |  |  |  |
| 0.38 | 89 |  | O=C(/C=C/C=C(c1ccc(F)cc1)c1ccc(F)cc1)NCCCCc1cccnc1 | 91 |  |  |  | 28 |
|  |  | Not Active | O=C(CCCC=C(c1ccccc1)c1ccccc1)NCCCCc1cccnc1 |  |  |  |  |  |
|  | 10 |  | COc1cccc(C(=C/C=C/C(=O)N[C@@H](C)CCCc2cccnc2)c2cccc(OC)c2)c1 | 36 |  |  |  |  |
| 0.46 | 25 |  | COc1cccc(/C(=C\C=C\C(=O)NCCCCc2cccnc2)c2cccc(F)c2)c1 | 88 |  |  |  |  |
|  |  |  | COc1ccc(C(=C/C=C/C(=O)NCCOCc2cccnc2)c2ccc(OC)cc2)cc1 | 48 |  |  |  |  |
| 0.41 | 71 |  | COc1ccc(/C(=C/C=C/C(=O)N[C@H](C)CCCc2cccnc2)C(C)C)cc1 | 89 | 30 | 20 |  |  |
| 0.5 | 0 |  | COc1ccc(/C(=C\C=C\C(=O)N[C@H](C)CCCc2cccnc2)c2ccccc2)cc1 | 74 |  |  |  |  |
| 0.54 | 71 |  | COc1ccc(C(=C/C=C/C(=O)NCCCCc2cccnc2)c2ccc(OC)c(OC)c2)cc1OC | 78 | 27 | 17 |  |  |
|  |  |  | COc1ccc(C(=C/C=C/C(=O)NCCCOc2cccnc2)c2ccc(OC)cc2)cc1 | 43 |  |  |  |  |
| 0.84 | 90 |  | COc1ccc(C(=C/C=C/C(=O)N[C@@H](C)CCCc2cccnc2)c2ccc(OC)cc2)cc1 | 59 | 29 | 56 |  |  |
| 0.16 | 95 |  | COc1ccc(/C(=C/C=C/C(=O)N[C@H](C)CCCc2cccnc2)c2ccccc2)cc1 | 89 |  | 53 |  |  |
| 0.18 | 54 |  | O=C(/C=C/C=C(c1ccc(Cl)cc1)c1ccc(Cl)cc1)NCCCCc1cccnc1 | 95 | 50 |  |  |  |
| 0.64 | 4 |  | CCCCCC(=C/C=C/C(=O)N[C@H](C)CCCc1cccnc1)CCCCC | 78 |  |  |  |  |
| 0.15 | 82 |  | COc1ccc(C(=C/C=C/C(=O)Nc2ccc(-c3cccnc3)cc2)c2ccc(OC)cc2)cc1 | 97 | 29 | 77 |  |  |
|  |  |  | COc1ccc(/C(C)=C/C=C/C(=O)N[C@H](C)CCCc2cccnc2)cc1 | 42 |  |  |  |  |
|  | 46 |  | C[C@@H](CCCc1cccnc1)NC(=O)/C=C/C=C(c1cccc(F)c1)c1cccc(F)c1 | 34 |  |  |  |  |
|  |  |  | CC[C@@H](CCCc1cccnc1)NC(=O)/C=C/C=C(c1ccc(OC)cc1)c1ccc(OC)cc1 | 44 |  |  |  |  |
|  |  |  | O=C(/C=C\C=C(c1ccccc1)c1ccccc1)NCCCCc1cccnc1 |  |  |  | -1 |  |
|  |  |  | CCCC[C@H](CCCc1cccnc1)NC(=O)/C=C/C=C(c1ccc(OC)cc1)c1ccc(OC)cc1 | 42 |  |  |  |  |
| 0.58 | 28 |  | O=C(C=C(c1ccccc1)c1ccccc1)NCCCCc1cccnc1 |  |  |  | 66 |  |
|  |  | Not Active | O=C(CCCCCC=C(c1ccccc1)c1ccccc1)NCCCCc1cccnc1 |  |  |  |  |  |
|  |  |  | COc1ccc(C(=C/C=C/C(=O)Nc2ccc(Cc3cccnc3)cc2)c2ccc(OC)cc2)cc1 | 3 |  |  |  |  |
| 0.22 | 91 |  | C[C@H](CCCc1cccnc1)NC(=O)/C=C/C=C(c1cccc(F)c1)c1cccc(F)c1 | 73 | 37 | 87 |  |  |
